Experimental findings from US8710233B2 (Gruenenthal GmbH, priority 2005, dated 2014) are described below.

For assay [1], the system named is capsaicin induced hypothermie. As to the kind of experiment: Hypothermie assay in the mouse (capsaicin induced hypothermie). It is filed as in vivo.
Assay [2] deals with formaldehyde induced nociceptive behaviour. The assay can be described thus: Formaldehyde test in mice, second (late) phase. In kind it is in vivo, mouse. The note with it: for inhibition in vivo at 1 mg/kg / inhibition in vivo at 0.1 mg/kg / inhibition in vivo at 0.3 mg/kg: read-out: inhibition formaldehyde test (n = 10); for inhibition in vivo at 0.1 mg/kg: 0.1 mg/kg body weight po.

A further assay concerns the target T1, vanilloid receptor (VR1) (Homo sapiens, UniProt Q8NER1).
T1 construct: expressed in transfected cells; host or cells: CHO K1 cells (ECACC), stably transfected
As to the kind of experiment: FLIPR Ca2+ influx assay on CHO K1 cells transfected with the VR1 gene (pharmacological method II). In kind it is cell-based. Conditions: table 4; capsaicin; read-out: Ki (human) Cap.

The target in assay [3] is T2, vanilloid receptor 1 (VR1/TRPV1) of the rat species (Rattus norvegicus, UniProt O35433).
T2 construct: The spinal column is removed from decapitated rats; from tissue; host or cells: primary cells dissociated from rat dorsal root ganglia
As to the kind of experiment: FLIPR Ca2+ influx assay on rat dorsal root ganglia cells (pharmacological method I). In kind it is cell-based. Conditions: table 4; capsaicin; read-out: Ki (rat) Cap. An outline of the steps:
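Primary rat dorsal root ganglion cells loaded with 2 μM Fluo-4, Ca2+ influx read on FLIPR as peak fluorescence. Triplicates, at least 3 independent experiments.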

The target in the next assay is VR1/TRPV1 receptor (Homo sapiens, UniProt Q8NER1). As to the kind of experiment: IC50 (human) after pH stimulus. The note with it: for IC50: table 4. In kind it is cell-based.
Where [4] appears, read: 0.3 mg/kg body weight po, mouse, read-out: inhibition hypothermie (n = 5).
Where [5] appears, read: 1 mg/kg body weight po, mouse, read-out: inhibition hypothermie (n = 5).
[6] abbreviates: 0.3 mg/kg body weight po, mouse.
Setting [7] is: Mus musculus, po, read-out: inhibition hypothermie (n = 5).

Where two headings read alike, the source gives them in different places.

Chain of VR1/TRPV1 receptor (Q8NER1 whole entry): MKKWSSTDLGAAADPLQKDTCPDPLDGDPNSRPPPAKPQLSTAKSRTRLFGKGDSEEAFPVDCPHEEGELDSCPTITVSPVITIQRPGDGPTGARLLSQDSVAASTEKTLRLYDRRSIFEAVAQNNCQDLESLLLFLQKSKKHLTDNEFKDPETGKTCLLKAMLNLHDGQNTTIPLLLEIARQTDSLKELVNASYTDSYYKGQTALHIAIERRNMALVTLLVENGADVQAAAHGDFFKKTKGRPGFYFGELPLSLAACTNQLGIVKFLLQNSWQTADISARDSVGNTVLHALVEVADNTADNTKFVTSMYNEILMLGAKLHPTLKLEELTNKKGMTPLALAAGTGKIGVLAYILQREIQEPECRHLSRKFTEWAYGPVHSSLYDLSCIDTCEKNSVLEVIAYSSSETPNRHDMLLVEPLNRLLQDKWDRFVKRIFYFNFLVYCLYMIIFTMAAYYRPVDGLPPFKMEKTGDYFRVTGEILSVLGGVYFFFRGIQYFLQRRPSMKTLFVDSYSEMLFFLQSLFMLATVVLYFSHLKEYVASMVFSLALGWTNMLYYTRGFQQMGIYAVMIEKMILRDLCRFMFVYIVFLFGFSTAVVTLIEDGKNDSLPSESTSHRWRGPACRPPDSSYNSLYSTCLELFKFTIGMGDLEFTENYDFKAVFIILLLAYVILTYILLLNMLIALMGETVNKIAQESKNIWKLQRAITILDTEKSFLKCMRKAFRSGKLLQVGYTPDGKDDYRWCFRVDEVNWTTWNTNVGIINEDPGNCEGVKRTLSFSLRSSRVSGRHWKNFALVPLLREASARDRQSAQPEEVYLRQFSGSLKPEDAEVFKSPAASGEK
T1 sequence (Q8NER1 whole entry): as above
T2 sequence (O35433 whole entry): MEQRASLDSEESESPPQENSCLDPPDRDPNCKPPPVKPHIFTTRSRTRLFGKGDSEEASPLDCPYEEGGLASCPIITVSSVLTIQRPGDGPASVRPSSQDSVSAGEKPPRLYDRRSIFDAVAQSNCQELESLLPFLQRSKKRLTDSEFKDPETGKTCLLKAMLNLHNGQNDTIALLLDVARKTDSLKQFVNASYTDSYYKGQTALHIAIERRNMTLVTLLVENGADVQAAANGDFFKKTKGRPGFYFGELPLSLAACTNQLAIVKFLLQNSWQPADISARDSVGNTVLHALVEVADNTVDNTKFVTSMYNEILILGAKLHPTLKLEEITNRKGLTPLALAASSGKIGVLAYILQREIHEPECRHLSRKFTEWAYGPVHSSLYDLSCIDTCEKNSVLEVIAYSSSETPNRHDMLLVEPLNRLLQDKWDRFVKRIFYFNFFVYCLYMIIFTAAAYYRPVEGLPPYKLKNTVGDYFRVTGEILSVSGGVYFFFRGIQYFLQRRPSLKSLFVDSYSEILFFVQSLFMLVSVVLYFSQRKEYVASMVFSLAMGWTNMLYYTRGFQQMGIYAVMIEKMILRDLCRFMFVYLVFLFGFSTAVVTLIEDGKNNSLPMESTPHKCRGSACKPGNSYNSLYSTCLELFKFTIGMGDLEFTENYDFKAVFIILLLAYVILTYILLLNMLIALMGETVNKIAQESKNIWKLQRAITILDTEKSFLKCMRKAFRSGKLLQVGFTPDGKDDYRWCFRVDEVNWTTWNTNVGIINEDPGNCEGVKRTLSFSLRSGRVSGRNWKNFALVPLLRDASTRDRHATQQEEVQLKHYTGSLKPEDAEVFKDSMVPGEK

With `CC(C(=O)NCc1ccc(C(F)(F)F)nc1OCCC(C)(C)C)c1ccc(NS(C)(=O)=O)c(F)c1` (centres unmarked) [Compound 125], the inhibition in vivo at 0.3 mg/kg in assay [1] (setting [4]) was 37%. Besides, the inhibition in vivo at 1 mg/kg was 32% in assay [1] (setting [5]) and 19% in assay [2] (1 mg/kg body weight po, mouse). Also, the inhibition in vivo at 3 mg/kg in assay [1] (3 mg/kg body weight po, mouse, read-out: inhibition hypothermie (n = 5)) came out at 65%.

Turning to `CC(C(=O)NCc1ccc(C(F)(F)F)cc1N1CCCCCCC1)c1ccc(NS(C)(=O)=O)c(F)c1` (centres unmarked) [Compound 217], the inhibition in vivo at 0.3 mg/kg in assay [1] (setting [4]) worked out at 97%. In assay [2] (1 mg/kg body weight po, mouse), the inhibition in vivo at 1 mg/kg was 37%.

Take `CC(C(=O)NCc1ccc(C(C)(C)C)nc1OC1CCCC1)c1ccc(NS(C)(=O)=O)c(F)c1` (centres unmarked) [Compound 234]: the inhibition in vivo at 0.3 mg/kg in assay [1] (setting [4]) came to 31%; in assay [2] (setting [6]), 41%. In addition, in assay [2] (mouse), the inhibition in vivo at 0.1 mg/kg is 28%. In addition, the inhibition in vivo at 1 mg/kg in assay [2] (1 mg/kg body weight po, mouse) turned out to be 44%.

`CC1CCN(c2nc(C(F)(F)F)ccc2CNC(=O)C(C)c2ccc(NS(C)(=O)=O)c(F)c2)CC1` (centres unmarked) [Example 80, 2-(3-fluoro-4-methylsulfonamido-phenyl)-N-(2-4-methylpiperidin-1-yl-6-trifluoromethyl-pyridin-3-ylmethyl)-propionamide]: the results for the inhibition in vivo at 0.3 mg/kg in assay [1] (setting [7]) and in assay [2] (setting [6]) were 66% and 58%, respectively. The Ki (as a rule, a measure of affinity in units of concentration, obtained from inhibition or displacement) turned out to be 0.3 nM at vanilloid receptor (VR1) and 0.6 nM in assay [3]. In addition, on VR1/TRPV1 receptor, the concentration for half-maximal inhibition (IC50) (in general, the concentration needed to halve the response being measured) stood at 5.4 nM.

Regarding `CC1CCN(c2cc(C(F)(F)F)ccc2CNC(=O)C(C)c2ccc(NS(C)(=O)=O)c(F)c2)CC1` (centres unmarked) [Example 82, 2-(3-Fluor-4-(methylsulfonamido)phenyl)-N-(2-(4-methylpiperidin-1-yl)-4-(trifluoromethyl)benzyl)propanamide], the “inhibition hypothermie (n = 5)” value in assay [1] (setting [6]) is on record as 0.3 po 53%. The “inhibition formaldehyde test (n = 10)” value in assay [2] (setting [6]) was 0.3 po 39%. The Ki at vanilloid receptor (VR1) turned out to be 0.9 nM; in assay [3], 0.7 nM. The IC50 on VR1/TRPV1 receptor turned out to be 16.2 nM.

On to `CC(C(=O)NCc1ccc(C(F)(F)F)nc1-c1cccs1)c1ccc(NS(C)(=O)=O)c(F)c1` (centres unmarked) [Example 88, 2-(3-fluoro-4-methylsulfonamido-phenyl)-N-((6-(trflluoromethyl)-2-(thiophen-2-yl)pyridin-3-yl)methyl)-propionamide], for which the inhibition in vivo at 0.3 mg/kg turned out to be 38% in assay [1] (setting [4]) and 4% in assay [2] (setting [6]). The figures for the Ki (at vanilloid receptor (VR1); in assay [3]) were 0.3 nM and 5 nM, respectively. The molecule further came in with an IC50 on VR1/TRPV1 receptor of 57.1 nM.

Consider `CC(C(=O)NCc1ccc(C(F)(F)F)nc1NC1CCCCC1)c1ccc(NS(C)(=O)=O)c(F)c1` (centres unmarked) [Example 90, N-(2-cyclohexylamino-6-trifluoromethyl-pyridin-3-ylmethyl)-2-(3-fluoro-4-methylsulfonamido-phenyl)-propionamide], for which the inhibition in vivo at 0.3 mg/kg in assay [1] (setting [4]) was determined as 81%; in assay [2] (setting [6]), 46%. Also, the inhibition constant (Ki) stood at 20.4 nM at vanilloid receptor (VR1) and 47 nM in assay [3]. The molecule also registered an IC50 on VR1/TRPV1 receptor of 260 nM.

As to `CC(C(=O)NCc1ccc(C(F)(F)F)nc1N1CCCC1)c1ccc(NS(C)(=O)=O)c(Br)c1` (centres unmarked) [Example 103, 2-(3-bromo-4-methylsulfonamido-phenyl)-N-(2-pyrrolidin-1-yl-6-trifluoromethyl-pyridin-3-ylmethyl)-propionamide], the inhibition in vivo at 0.3 mg/kg in assay [1] (setting [4]) was 39%; in assay [2] (setting [6]), 36%. Also, the Ki on vanilloid receptor (VR1) is 2.8 nM; in assay [3] it was 4.9 nM. Besides, on VR1/TRPV1 receptor (@ 10 μM, read-out: inhibition in percent, IC50 (human) after pH stimulus), the inhibition – broadly, the percentage by which the read-out fell short of the control – at 10 µM is 16%.

`CCCCOc1cc(C(C)(C)C)ccc1CNC(=O)C(C)c1ccc(NS(C)(=O)=O)c(F)c1` (centres unmarked) [Example 108, N-(2-butoxy-4-tert-butyl-benzyl)-2-(3-fluoro-4-methylsulfonamido-phenyl)-propionamide]: the inhibition in vivo at 0.3 mg/kg worked out at 38% in assay [1] (setting [4]) and 15% in assay [2] (setting [6]). The Ki amounted to 1.4 nM at vanilloid receptor (VR1) and 0.6 nM in assay [3]. This molecule also came in with an IC50 against VR1/TRPV1 receptor of 114 nM.

In the case of `CCCCNc1nc(C(F)(F)F)ccc1CNC(=O)C(C)c1ccc(NS(C)(=O)=O)c(F)c1` (centres unmarked) [Example 116, N-(2-butylamino-6-trifluoromethyl-pyridin-3-ylmethyl)-2-(3-fluoro-4-methylsulfonamido-phenyl)-propionamide], the inhibition in vivo at 0.3 mg/kg in assay [1] (setting [4]) was determined as 21%. Besides, the inhibition in vivo at 0.1 mg/kg in assay [2] (mouse) came to 39%. Moreover, the results for the Ki (at vanilloid receptor (VR1); in assay [3]) were 9.1 nM and 6.6 nM, respectively. At VR1/TRPV1 receptor, this molecule yielded an IC50 of 293 nM.

With `CC(C(=O)NCc1ccc(C(F)(F)F)nc1-c1ccc(C(C)(C)C)cc1)c1ccc(NS(C)(=O)=O)c(F)c1` (centres unmarked) [Example 117], the inhibition in vivo at 0.3 mg/kg in assay [1] (setting [4]) worked out at 70%; in assay [2] (setting [6]) it was 5%. Besides, the Ki (on vanilloid receptor (VR1); in assay [3]) was 0.5 nM each time. At VR1/TRPV1 receptor, the IC50 was found to be 23.5 nM.

With `CC(C(=O)NCc1ccc(C(F)(F)F)nc1SC1CCCCC1)c1ccc(NS(C)(=O)=O)c(F)c1` (centres unmarked) [Example 126], the inhibition in vivo at 0.3 mg/kg in assay [1] (setting [4]) was found to be 0%. Further, the inhibition in vivo at 0.1 mg/kg in assay [2] (mouse) came out at 20%. The values for the Ki (at vanilloid receptor (VR1); in assay [3]) were 0.9 nM and 1.2 nM, respectively. For the same molecule, the IC50 on VR1/TRPV1 receptor came out at 101 nM.

Turning to `Cc1cc(C(C)C(=O)NCc2ccc(C(F)(F)F)nc2N2CCCCC2)ccc1NS(C)(=O)=O` (centres unmarked) [Example 127, 2-(4-methylsulfonamido-3-methyl-phenyl)-N-(6′-trifluoromethyl-3,4,5,6-tetrahydro-2H-[1,2′]bipyridinyl-3′-ylmethyl)-propionamide], the inhibition in vivo at 0.3 mg/kg in assay [1] (setting [4]) worked out at 6%; in assay [2] (setting [6]), 22%. Besides, the figures for the Ki (at vanilloid receptor (VR1); in assay [3]) were 0.5 nM and 0.6 nM, respectively. On VR1/TRPV1 receptor, this molecule yielded an IC50 of 15.4 nM.

As for `CC(C(=S)NCc1ccc(C(F)(F)F)nc1N1CCCC1)c1ccc(NS(C)(=O)=O)c(F)c1` (centres unmarked) [Example 129, 2-(3-fluoro-4-methylsulfonamido-phenyl)-N-(2-pyrrolidin-1-yl-6-trifluoromethyl-pyridin-3-ylmethyl)-thiopropionamide], the values for the inhibition in vivo at 0.3 mg/kg in assay [1] (setting [4]) and in assay [2] (setting [6]) were 10% and 5%, respectively. The Ki is 1.8 nM at vanilloid receptor (VR1) and 1.6 nM in assay [3]. The molecule further had an IC50 on VR1/TRPV1 receptor of 77.2 nM.

For `CC(C(=S)NCc1ccc(C(F)(F)F)nc1-c1ccc(F)cc1)c1ccc(NS(C)(=O)=O)c(F)c1` (centres unmarked) [Example 130, 2-(3-fluoro-4-methylsulfonamido-phenyl)-N-[2-(4-fluoro-phenyl)-6-trifluoromethyl-pyridin-3-ylmethyl]-thiopropionamide], the inhibition in vivo at 0.3 mg/kg stood at 58% in assay [1] (setting [4]) and 41% in assay [2] (setting [6]). The Ki at vanilloid receptor (VR1) came out at 2.1 nM; in assay [3] it was 4.5 nM. Half-maximal inhibition against VR1/TRPV1 receptor (IC50) was put at 34.3 nM.

In the case of `CC(C(=O)NCc1ccc(C(F)(F)F)nc1-c1cccc(F)c1)c1ccc(NS(C)(=O)=O)c(F)c1` (centres unmarked) [Example 148, 2-(3-fluoro-4-methylsulfonamido-phenyl)-N-[2-(3-fluoro-phenyl)-6-trifluoromethyl-pyridin-3-ylmethyl]-propionamide], the inhibition in vivo at 0.3 mg/kg is 45% in assay [1] (setting [4]) and 44% in assay [2] (setting [6]). Moreover, the figures for the Ki (at vanilloid receptor (VR1); in assay [3]) were 1.3 nM and 1.1 nM, respectively. Besides, the IC50 against VR1/TRPV1 receptor amounted to 63.6 nM.

As for `COC1CCN(c2nc(C(F)(F)F)ccc2CNC(=O)C(C)c2ccc(NS(C)(=O)=O)c(F)c2)CC1` (centres unmarked) [Example 159, 2-(3-fluoro-4-methylsulfonamido-phenyl)-N-(4-methoxy-6′-trifluoromethyl-3,4,5,6-tetrahydro-2H-[1,2′]bipyridinyl-3′-ylmethyl)-propionamide], the inhibition in vivo at 0.3 mg/kg was found to be 28% in assay [1] (setting [4]) and 10% in assay [2] (setting [6]). The Ki at vanilloid receptor (VR1) was 2.4 nM; in assay [3], 21.4 nM. Also, the IC50 at VR1/TRPV1 receptor turned out to be 280 nM.

On to `CC(C(=O)NCc1ccc(C(F)(F)F)nc1OCCc1ccccc1)c1ccc(NS(C)(=O)=O)c(F)c1` (centres unmarked) [Example 178, 2-(3-fluoro-4-methylsulfonamido-phenyl)-N-(2-phenethyloxy-6-trifluoromethyl-pyridin-3-ylmethyl)-propionamide], for which the inhibition in vivo at 0.3 mg/kg is 42% in assay [1] (setting [4]) and 16% in assay [2] (setting [6]). Further, the Ki in assay [3] came to 1.9 nM.

`CC(C)CCOc1nc(C(C)(C)C)ccc1CNC(=O)C(C)c1ccc(NS(C)(=O)=O)c(F)c1` (centres unmarked) [Example 329, N-[6-tert-butyl-2-(3-methyl-butoxy)-pyridin-3-ylmethyl]-2-(3-fluoro-4-methylsulfonamido-phenyl)-propionamide]: the inhibition in vivo at 1 mg/kg in assay [1] (setting [5]) was found to be 7%; in assay [2] (1 mg/kg body weight po, mouse), 54%. The Ki at vanilloid receptor (VR1) came to 0.8 nM. In addition, the IC50 against VR1/TRPV1 receptor came out at 179 nM.

For the molecule `CC(C(=O)NCc1ccc(C(F)(F)F)nc1N1CCC(c2ccccc2)(N(C)C)CC1)c1ccc(NS(C)(=O)=O)c(F)c1` (centres unmarked) [Example 330, N-(4-dimethylamino-4-phenyl-6′-trifluoromethyl-3,4,5,6-tetrahydro-2H-[1,2′]bipyridinyl-3′-ylmethyl)-2-(3-fluoro-4-methylsulfonamido-phenyl)-propionamide], the inhibition in vivo at 1 mg/kg in assay [1] (setting [7]) is 7%; in assay [2] (Mus musculus, po), 54%.
